According to publication doi:10.1101/2023.03.26.531482v1 (biorxiv, 2023):
Where two headings read alike, the source gives them in different places.

Columns and labels:
[1] = target: MtDTBS (Mycobacterium tuberculosis dethiobiotin synthetase) (Mycobacterium tuberculosis, UniProt P9WPQ5)
[2] = target: T1, MtDTBS (Mycobacterium tuberculosis dethiobiotin synthetase) (Mycobacterium tuberculosis, UniProt P9WPQ5); assay: biochemical
T1 sequence (P9WPQ5 1-226): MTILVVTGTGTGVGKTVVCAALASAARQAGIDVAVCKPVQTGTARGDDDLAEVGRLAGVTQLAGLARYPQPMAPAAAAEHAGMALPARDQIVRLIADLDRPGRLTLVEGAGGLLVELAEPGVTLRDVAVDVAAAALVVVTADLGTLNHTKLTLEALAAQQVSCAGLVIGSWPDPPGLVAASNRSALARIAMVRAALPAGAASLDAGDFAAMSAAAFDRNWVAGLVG

O=C1CC[N+](=Cc2cccc(C(F)(F)F)c2)[N-]1 [B7] gave a Kd [1] of 680 ± 30 µM.

In the case of O=C1CC(c2ccc(F)cc2)Cc2[nH]ncc21 (stereo not shown) [B3], the Kd [1] is reported as 620 ± 140 µM.

c1ccc2c(c1)CCC1(C2)NCCc2[nH]cnc21 (stereo not shown) [B1] showed a Kd [1] of 1240 ± 180 µM.

O=C1Oc2ccccc2C2(O)C3CCCC3C12 (stereo not shown) [compound 1, 9b-hydroxy-6b,7,8,9,9a,9b-hexahydrocyclopenta[3,4]cyclobuta[1,2-c]chromen-6(6aH)-one] gave a Kd [2] of 580 ± 40 µM.
